2 molecules from ChEMBL document CHEMBL5321258, “Anticancer evaluation of benzofuran derivatives linked to dipiperazine moiety” (Bioorg Med Chem Lett, 2023) can be followed below.

Assay [1] concerns HeLa. The assay can be described thus: Anticancer activity against human Hela cells assessed as inhibition rate at 30 uM by SRB assay relative to control. Type of assay: functional.
Assay [2] deals with A549. Nature of the assay: Anticancer activity against human A549 cells assessed as inhibition of cell proliferation by SRB assay. Type of assay: functional, cell-based.
Assay [3] deals with A549. Nature of the assay: Anticancer activity against human A549 cells assessed as inhibition rate at 30 uM by SRB assay relative to control. The assay is classed as functional.
Assay [4] relates to A549. Nature of the assay: Induction of apoptosis in human A549 cells assessed as necrotic cells at 2.5 uM incubated for 24 hrs AnnexinV/ propidium iodide staining based flow cytometry (Rvb= 0.16 %). Type of assay: functional.
For assay [5], the system named is HeLa. The assay can be described thus: Anticancer activity against human HeLa cells assessed as inhibition of cell proliferation by SRB assay. Type of assay: functional, cell-based.
Assay [6] concerns A549. Nature of the assay: Induction of apoptosis in human A549 cells assessed as early apoptotic cells at 5 uM incubated for 24 hrs AnnexinV/ propidium iodide staining based flow cytometry (Rvb= 0.79 %). Type of assay: functional.
Assay [7] deals with A549. Nature of the assay: Anticancer activity against human A549 cells assessed as inhibition rate at 10 uM by SRB assay relative to control. Type of assay: functional.
Assay [8] concerns A549. Nature of the assay: Induction of apoptosis in human A549 cells assessed as late apoptotic cells at 2.5 uM incubated for 24 hrs AnnexinV/ propidium iodide staining based flow cytometry (Rvb= 0.54 %). Type of assay: functional.
Assay [9] concerns A549. Nature of the assay: Induction of apoptosis in human A549 cells assessed as viable cells at 2.5 uM incubated for 24 hrs AnnexinV/ propidium iodide staining based flow cytometry (Rvb= 98.5 %). Type of assay: functional. The conditions noted are these: read-out: Activity.
In assay [10] the test system is A549. Nature of the assay: Induction of apoptosis in human A549 cells assessed as viable cells at 5 uM incubated for 24 hrs AnnexinV/ propidium iodide staining based flow cytometry (Rvb= 98.5 %). The assay is classed as functional. The conditions noted are these: read-out: Activity.
Assay [11] has as its system A549. The assay can be described thus: Induction of apoptosis in human A549 cells assessed as necrotic cells at 5 uM incubated for 24 hrs AnnexinV/ propidium iodide staining based flow cytometry (Rvb= 0.16 %). Type of assay: functional.
For assay [12], the system named is HeLa. Nature of the assay: Anticancer activity against human Hela cells assessed as inhibition rate at 10 uM by SRB assay relative to control. Type of assay: functional.
In assay [13] the test system is A549. Nature of the assay: Induction of apoptosis in human A549 cells assessed as early apoptotic cells at 2.5 uM incubated for 24 hrs AnnexinV/ propidium iodide staining based flow cytometry (Rvb= 0.79 %). The assay is classed as functional.
Assay [14] deals with A549. The assay can be described thus: Induction of apoptosis in human A549 cells assessed as late apoptotic cells at 5 uM incubated for 24 hrs AnnexinV/ propidium iodide staining based flow cytometry (Rvb= 0.54 %). The assay is classed as functional.

SMILES strings stand for the structures.

On to `CCN(CC)c1ccc2cc(C(O)c3ccc(OCCN4CCN(C(=O)CN5CCN(C(=O)c6ccc(F)cc6)CC5)CC4)cc3)oc2c1` (stereo not drawn), for which the inhibition at 30 µM was 40.6% in [1] and 83.9% in [3]. In addition, the IC50 in assay [2] is 430 nM; in [5], over 30000 nM. In addition, the Activity is on record as 4.26% in [4]; 28.5% in [6]; 18.9% in assay [8]; 9.18% in assay [11]; 5.88% in assay [13]; 39% in [14]. The inhibition at 10 µM amounted to 80.1% in assay [7] and 20.4% in assay [12]. In assay [9], the viability at 2.5 µM was 71%. For the same molecule, in assay [10], the viability at 5 µM stood at 23.4%.

`CCN(CC)c1ccc2cc(C(O)c3ccc(OCCN4CCN(C(=O)CN5CCN(C(=O)c6ccc(C(F)(F)F)cc6)CC5)CC4)cc3)oc2c1` (stereo not drawn): the inhibition at 30 µM in assay [1] was found to be 19.8%; in [3], 95.2%. Also, the figures for the IC50 in assay [2] and in assay [5] were 120 nM and over 30000 nM, respectively. In addition, the Activity in assay [4] turned out to be 0.25%; in [6] it was 1.95%; in [8] it was 1.73%; in [11], 0.55%; in assay [13], 1.07%; in assay [14] it was 3.49%. For the same molecule, the inhibition at 10 µM in assay [7] was 92.5%; in assay [12] it was 11.3%. Besides, the viability at 2.5 µM in assay [9] stood at 97%. Further, the viability at 5 µM in assay [10] is 94%.
